{"source": "patent US20120165403A1", "about": "“METHODS OF INHIBITING THE ACTIVITY OF HSP90 AND/OR ARYL HYDROCARBON RECEPTOR” (UNIVERSITY OF ROCHESTER, priority 2004, published 2012)", "key": {"AhR": {"system": "AhR", "assay": "AhR protein levels by western blotting in Hepa cells", "assay_type": "cell-based, mouse", "conditions": "over 12 hours", "description": "Hepa cells were plated onto 6-well plates at a density of 5×10^5 cells/well and incubated overnight at 37° C. […] Cells were lysed (0.2% Triton, 5 mM EDTA in PBS) and total protein quantified using the Coomassie Plus Protein Assay Reagent (Pierce, Rockford, Ill.). Protein (30 μg) was separated by SDS-PAGE (7.5% acrylamide resolving gel) and transferred to PVDF membrane (Millipore, Bedford, Mass.). Membranes were probed with antibodies recognizing CYP1A1 (Xenotech, Lenexa, Kans.), AhR (Biomol, Plymouth Meeting, Pa.) and actin (Sigma). The secondary IgG antibodies were coupled to horseradish peroxidase (Jackson Immuno Research, West Grove, Pa.). Both primary and secondary antibodies were used at a dilution of 1:5000 in TBST (50 mM Tris, 300 mM NaCl, 0.5% Tween 20, pH 7.5) containing 5% milk. Proteins were visualized by chemiluminescence (KPL, Gaithersburg, Md.)."}, "AhR/Arnt complex": {"target": "T1, AhR/Arnt complex (Mus musculus, UniProt P30561)", "T1 construct": "made in house; host or cells: TNT rabbit reticulocyte lysate", "T1 sequence (P30561 10-805 limits assumed)": "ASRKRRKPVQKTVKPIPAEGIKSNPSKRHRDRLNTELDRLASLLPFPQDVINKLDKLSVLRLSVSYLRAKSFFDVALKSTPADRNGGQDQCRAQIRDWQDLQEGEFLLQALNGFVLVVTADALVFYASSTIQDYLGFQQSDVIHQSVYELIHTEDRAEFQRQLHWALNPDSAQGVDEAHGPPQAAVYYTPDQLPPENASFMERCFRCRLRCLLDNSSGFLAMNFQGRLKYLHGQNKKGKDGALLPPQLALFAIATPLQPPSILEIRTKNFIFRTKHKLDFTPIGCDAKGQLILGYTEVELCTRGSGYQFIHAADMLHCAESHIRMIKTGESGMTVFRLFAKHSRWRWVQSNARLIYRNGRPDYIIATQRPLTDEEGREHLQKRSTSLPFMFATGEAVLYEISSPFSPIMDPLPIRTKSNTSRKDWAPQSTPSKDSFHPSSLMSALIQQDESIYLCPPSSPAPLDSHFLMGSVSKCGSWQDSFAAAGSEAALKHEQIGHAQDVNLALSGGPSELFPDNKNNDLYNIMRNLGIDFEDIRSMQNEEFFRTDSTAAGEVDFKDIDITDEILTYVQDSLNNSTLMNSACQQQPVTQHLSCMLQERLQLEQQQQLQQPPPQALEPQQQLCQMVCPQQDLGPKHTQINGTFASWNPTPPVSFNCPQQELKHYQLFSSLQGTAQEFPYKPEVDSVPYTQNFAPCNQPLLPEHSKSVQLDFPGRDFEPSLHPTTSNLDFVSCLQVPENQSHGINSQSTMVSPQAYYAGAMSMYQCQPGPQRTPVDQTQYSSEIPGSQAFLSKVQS", "assay": "AhR/Arnt complex formation by immunoprecipitation in RRL", "assay_type": "biochemical, murine", "conditions": "200 μm EGCG, with or without 1 nM TCDD, anti-AhR immunoprecipitation", "from_the_text": "Murine AhR and ARNT cDNA (obtained from J. Whitlock and O. Hankinson, respectively) were inserted into pcDNA3 (Invitrogen, Carlsbad, Calif.). Chicken hsp90 constructs (FIG. 5), c90711hsp (wild-type), c90G94D (wild-type point mutant gly94→Asp (Grenert et al., J. Biol. Chem. 272:23843-23850 (1997), which is hereby incorporated by reference in its entirety), c90D92A (wild-type point mutant Asp92→Ala (Sullivan et al., J. Biol. Chem. 268:20373-20379 (1993), which is hereby incorporated by reference in its entirety), c90N221 (wild-type truncation mutant encoding a.a. 221-728 (Sullivan et al., J. Biol. Chem. 268:20373-20379 (1993), which is hereby incorporated by reference in its entirety)), c90N303 (a.a. 303-728) and c90N538 (a.a. 538-728) were kind gifts from Dr. D. Toft (Rochester, Minn.). The C-terminal truncation mutant c900507 (a.a. 1-221) was obtained from Dr. L. Neckers (Rockville, Md.) (Grenert et al., J. Biol. Chem. 272:23843-23850 (1997); Marcu et al., J. Biol. Chem. 275:37181-37186 (2000), which are hereby incorporated by reference in their entirety). Human p23 cDNA was excised from pQE80-p23 (obtained from W. Chan Stockton, Calif.) by sequential digests using the restriction enzymes Sad (3′-end) and BamHI (5′-end) and inserted into the similarly digested pET28a (Novagen, Madison, Wis.). […]"}}}
{"smiles": "O=C(O[C@@H]1Cc2c(O)cc(O)cc2O[C@@H]1c1cc(O)c(O)c(O)c1)c1cc(O)c(O)c(O)c1", "note": "[EGCG, epigallocatechin gallate]", "values": [{"measurement": "effect on the TCDD-induced decrease of AhR levels", "setting": "AhR; 200 μM EGCG with 150 pM TCDD", "result": "not exacerbated or prevented"}, {"measurement": "AhR protein levels, treatment alone", "setting": "AhR; EGCG 200 μM or TCDD 150 pM", "result": "not capable of inducing AhR degradation"}, {"measurement": "effect on AhR/Arnt complex formation", "setting": "AhR/Arnt complex", "result": "disrupting AhR/Arnt complex formation"}]}
